This is an account of results in US20250215015A1 (THE REGENTS OF THE UNIVERSITY OF CALIFORNIA, priority 2022, published 2025).

Data set [1] concerns U87 GBM. The data set can be described thus: GBM agent potency in U87 cells. The data set is classed as cell-based. From the text:
UCN-01 potency. The potency of UCN-01 markedly exceeds that of standard GBM agents in GBM U87 cells (Table 1), and it engages a unique pattern of signaling pathways to drive apoptosis. The ability of UCN-01 at noncytotoxic doses to abrogate G2 arrest is evident in p53 dysregulated cells. p53 is mutated in about 35% of primary GBM and 65% of secondary GBM. p53 pathway dysregulation occurs in 86% of GBM.

Data set [2] concerns phosphorylation of Akt. Kind of data set: Western blot for Akt, P-Akt, cleaved PARP. Type of data set: cell-based. Conditions: U87 cells. The text has this:
FIG. 5A: Western blot analysis for Akt, P-Akt, cleaved PARP. […] Representative blot from two independent experiments is shown.

Data set [3] deals with U87 flank tumors. Kind of data set: U87 flank tumor growth in mice. The data set is classed as in vivo, nu/nu mice.
Data set [4] concerns U87 cells. Kind of data set: FACS analysis for DNA content. The data set is classed as cell-based. Conditions: treated cells. In general terms: Flow cytometry measures light scatter and fluorescence of single cells or particles in a stream.
Data set [5] can be described thus: Toxicity in mice: body weight and liver enzymes. The data set is classed as in vivo. Conditions: mice bearing U87 GBM flank tumors. The text has this:
Weight declined with STS but not PBS or LSTS. Bottom panel is bar graph depicting liver enzymes ALT/AST before and after treatment. For free STS the post treatment levels were flagged as abnormal (stars). ALT/AST enzyme levels were normal with empty liposomes (control) and LSTS. Reference levels shown by dashed lines.

Data set [6] can be described thus: In vitro unbound fraction of UCN-01 in dog plasma. Type of data set: in vitro ADME. Details: dose or concentration left out as unconfirmed. From the text: (§1) UCN-01 pharmacokinetics and nanoliposomes. Free UCN-01 is instantly bound by human alpha-1 acid glycoprotein (AAG) plasma protein with extremely high affinity and remains in circulation for remarkably extended periods of time. […] Unfortunately this greatly diminishes the availability of free (active) compound so that the in vivo effectiveness of UCN-01 is compromised even when it enters tumor tissue when bound to AAG the UCN-01 molecule is not bioavailable. Increasing the UCN-01 dose to sufficiently saturate AAG in the plasma elevates the risk of toxicity.

A short description of data set [7]: In vitro unbound fraction of UCN-01 in mouse plasma. The data set is classed as in vitro ADME. Also on record: dose or concentration left out as unconfirmed.
Description: as §1

Data set [8] is described as follows: In vitro unbound fraction of UCN-01 in human plasma. Type of data set: in vitro ADME. Also on record: dose or concentration left out as unconfirmed.
Description: as §1

A short description of data set [9]: In vitro unbound fraction of UCN-01 in rat plasma. The data set is classed as in vitro ADME. Also on record: dose or concentration left out as unconfirmed.
Description: as §1

The test system of data set [10] is GBM patient cancer stem cell derived GBM tumorsphere lines. Kind of data set: GBM cytotoxicity, MTT assay in tumorsphere lines. The data set is classed as cell-based. The settings on record: 8 GBM tumorsphere lines, almost all cell lines. The procedure: GBM cytotoxicity with UCN-01. 8 different GBM patient cancer stem cell derived GBM tumorsphere lines were incubated with a range of UCN-01 doses. The percent viable cells were determined with the MTT assay.
On the technique in general: Tetrazolium assays rely on reduction of a dye to a coloured formazan, in cell work by metabolically active cells.

Data set [11] has as its system radioresistant U87 GBM cells. Kind of data set: GBM radiosensitization in culture. The settings on record: mildly cytotoxic nM levels, clinically relevant radiation doses. The data set is classed as cell-based. The procedure: Bar graph of radiation dose and UCN-01 dose (nM) vs percent viable U87 GBM cells. Red columns for 0 Gy and purple for 5 Gy—a clinically relevant dose.
GBM radiosensitization with low doses of the staralog UCN-01. […] As a precursor to studies with a range of staralogs, extensive model investigations with the class parent staralog model system, STS were performed.

Data set [12] deals with U87 glioblastoma cells. Kind of data set: Potentiation of temozolomide. The data set is classed as cell-based.

Read-outs that look alike come from different tables or passages of the source.

As to `O=NN(CCCl)C(=O)NCCCl` [BCNU], in data set [1], half-maximal inhibition (IC50) was put at 60000 nM.

For the compound `O=c1[nH]cc(F)c(=O)[nH]1` [Compound 5-FU, 5-FU], the IC50 in data set [1] was 2500 nM.

Consider `COc1cccc2c1C(=O)c1c(O)c3c(c(O)c1C2=O)C[C@@](O)(C(=O)CO)C[C@@H]3O[C@H]1C[C@H](N)[C@H](O)[C@H](C)O1` [Doxorubicin], for which, in data set [1] (Homo sapiens, U-87 MG), the IC50 amounted to 1000 nM.

For the compound `CN[C@@H]1C[C@H]2O[C@@](C)([C@@H]1OC)n1c3ccccc3c3c4c(c5c6ccccc6n2c5c31)C(=O)NC4` [STS, Staurosporine], in data set [2], the PARP cleavage entry is reported as “stimulated caspase 3 dependent PARP cleavage” and the phospho-Akt entry is on record as “suppression of phospho-Akt”. In addition, in data set [3], the “in vivo GBM proliferation (Ki-67)” value is “did not”. Also, the “DNA content (FACS)” value in data set [4] is on record as “G0 shift consistent with apoptosis”. Besides, the body weight result in data set [5] was “reduction in body weight”.

Take `Cn1nnc2c(C(N)=O)ncn2c1=O` [Temozolomide]: in data set [1] (Homo sapiens, U-87 MG), the 50% inhibitory concentration (IC50) was found to be 50000 nM.

Regarding `CN[C@@H]1C[C@H]2O[C@@](C)([C@@H]1OC)n1c3ccccc3c3c4c(c5c6ccccc6n2c5c31)C(=O)N[C@H]4O` [UCN-01, 7-hydroxystaurosporine], the Unbound fraction % in data set [6] is reported as 0.49%; in data set [7], 1.14%; in data set [8] it was below 0.02%; in data set [9], 1.75%. The IC50 values entry in data set [10] is given as “low nanomolar (nM) range”. The sensitization to radiation entry in [11] is on record as “able to sensitize”. In [1], this compound registered an IC50 of 50 nM. Moreover, in data set [12], the “potentiation of temozolomide (TMZ)” value is reported as “potentiated temozolomide (TMZ)”.

The IC50 is the concentration needed to halve the response being measured.
